Test results published in patent US12421264B2 (INSTITUT NATIONAL DE LA RECHERCHE SCIENTIFIQUE, priority 2018, dated 2025).
Values after ≈ are worked out from the molar mass of the structure shown.

How the values were obtained:
N. meningitidis = experiment: Bacterial survival assay (3 h), CFU counts; assay type: cell-based, Neisseria meningitidis; conditions: 50 μM, 3 h, CFU counts vs DMSO 1% control
Experimental: (§1) Bacterial Survival Assay (3 h)
(§2) To measure bacterial survival (FIGS. 2 and 4), different bacteria were exposed to various concentrations of the compounds (as indicated) in their specific growth media (see the culture conditions above) for 3 h at 37° C. To perform this assay, all strains were grown overnight in their corresponding agar media. Cell-suspension corresponding to an OD600=0.05 were subsequently prepared. In parallel, fresh stock DMSO solutions of the compounds were prepared (100×, with final concentrations being indicated in the different figures) and 1.8 μL of the corresponding solutions were added per well of 96-well plates. In each well, 178.2 μL of bacterial suspension were subsequently added. Bacteria were allowed to grow during […] at 37° C. with 5% CO2. After incubation, serial dilutions (until 10^−6) were performed and 50 μL of each diluted solution were spread on agar plates. After an overnight incubation at 37° C. with/without 5% CO2, CFU were enumerated. All these assays were performed at least in triplicates.
(§3) Therefore, the bactericidal activity was assessed for the 4 compounds harboring a BPh4^− identified from the initial screen described above (AnIII-7, AnIII-6, AnII-18, NaBPh4). N. meningitidis was treated with 50 μM of each compound and the % survival cells (compared with DMSO 1% control) was measured using serial dilutions and CFU counts. […] To verify if the bactericidal effect could be observed for the other pathogen of the Neisseria family, a clinical isolate of. N. gonorrhoeae (LNP16626 [3]) was also treated with 50 μM of the same compounds, respectively, using the same assay.
(§4) The MBC (minimum bactericidal concentration that kill >99.999%), the concentration necessary to completely abrogate bacterial survival after a 3 h exposure to NaBPh4, was next assessed.

[1] = Partition coefficient (Log P), shaking flask method (HPLC-UV); assay type: physicochemical; conditions: octanol/water
Text: As well-known to the skilled person, when expressing lipophilicity as log P, P is the partition coefficient; that is the ratio of the concentrations of the compound between a hydrophobic phase and a hydrophilic phase (forming a biphasic liquid mixture), generally water and octanol.
(§5) The measurement of log P is well described in the literature—see e.g. Román, I. P.; Mastromichali, A.; Tyrovola, K.; Canals, A.; Psillakis, E. Rapid Determination of Octanol-Water Partition Coefficient Using Vortex-Assisted Liquid-Liquid Microextraction. J. Chromatogr. A 2014, 1330, 1-5; and Yiantzi, E.; Psillakis, E.; Tyrovola, K.; Kalogerakis, N. Vortex-Assisted Liquid-Liquid Microextraction of Octylphenol, Nonylphenol and Bisphenol-A. Talanta 2010, 80 (5), 2057-2062, both of which are incorporated herein by reference.
as §5, with “Partition coefficients (Log P) were determined using” for “The measurement of log P is well described in”, “shaking flask method (HPLC-UV)—see” for “literature—see e.g.”

[2] = test system: N. gonorrhoeae (LNP16626); experiment: Bacterial survival assay (3 h), CFU counts; assay type: cell-based, Neisseria gonorrhoeae; conditions: 50 μM, 3 h, CFU counts
Experimental: as §1, §2, §3, §4

[3] = test system: N. meninigitidis (LNP24198) expressing luciferase (LuxABCDE); experiment: N. meningitidis luminescent strain growth assay (16 h); assay type: cell-based, Neisseria meningitidis; conditions: for MIC: 16 h
Experimental: N. meningitidis Luminescent Strain Growth Assay (16 h)
To perform the library screening (FIG. 1) or to compare the activity of the different boron-containing salts (FIG. 3), the amount of light produced after 16 h of growth for N. meningitidis luminescent strain was measured. Contrarily to optical density (OD) readings which can be misleading due to the absorbance of dead cells, this measurement is directly correlated to the number of live cells, as the half-life of the luciferase and its substrate are limited and that the emission of light is therefore not subsisting after the death of the cells. To perform this assay, N. meninigitidis (LNP24198) expressing luciferase (LuxABCDE) was grown overnight under the control of the constitutive promoter porBp in GCB agar media, and a cell-suspension corresponding to an OD600=0.01 was subsequently prepared. In parallel, fresh stock DMSO solutions of the compounds were prepared (100×, with final concentrations being indicated in the different figures) and 1.8 μL of the corresponding solutions were added per well of 96-well plates. In each well, 178.2 μL of bacterial suspension were subsequently added. Bacteria were allowed to grow during 16 h at 37° C. with 5% CO2. The emitted light was measured using a 96-well plate luminometer (PerkinElmer Wallac 1420 Victor^3) and results are expressed in relative light unit (RLU). All these assays were performed at least in triplicates.
To screen molecules for their antibacterial activity, a luminescent system was used, as previously described for other bacteria. A clinical isolate of N. meninigitidis (LNP24198) expressing luciferase (LuxABCDE) under the control of the constitutive promoter porBp was used, as similarly described, located in the intergenic region next to NMB1732. More than 2400 compounds from different origins were screened to identify candidates with the ability to inhibit the growth of N. meningitidis after 16 h at 37° C. […] It is noteworthy that stock solutions for all tested compounds were prepared in DMSO and that the final DMSO concentration of the tested solutions was kept at 1%, a concentration which has proven not to affect the growth of N. meningitidis (FIG. 1A). […] An investigation of the effect of the BPh4^− moiety was then pursued.
To exclude any salt-specific effect, the effect of several BPh4^− and BF4^− salts on the growth of N. meningitidis luminescent strain was tested. The growth of N. meningitidis was measured after a 16 h-exposure to different concentrations of various BPh4^− and BF4^− salts. From this assay, the MIC (minimum inhibitory concentration, the lowest concentration that prevents visible bacterial growth, <800 RLU) was calculated. All BPh4 salts tested (sodium, ammonium and potassium) were all highly toxic for N. meningitidis.
Several borate compounds were prepared and their ability to inhibit N. meningitidis growth was assessed using the luminescent system described at Example 2.

[4] = minimum inhibitory concentration, N. meningitidis growth, luminescent system (<800 RLU)

Row | Molecule | MIC [3, 4] | MIC ([3]; Neisseria meningitidis) [µM] | logP [1] | further results
1 | F[B-](F)(F)F [BF4, reference compound] |  |  |  | survival of N. meningitidis (N. meningitidis): does not exhibit anti-bacterial activity; Log P [1]: about −1.6; survival of N. gonorrhoeae [2]: does not exhibit anti-bacterial activity
2 | c1ccc(B(c2ccccc2)c2ccccc2)cc1 [BPh3, triphenylborane, reference compound] |  |  |  | toxicity / effect on growth of N. meningitidis luminescent strain (FIG. 3) ([3]; 16 h-exposure, different concentrations): No observable toxicity
3 | F[B-](F)(F)c1ccccc1.[K+] [Compound 2, Potassium trifluoro(phenyl)borate, reference compound] | >250 µM |  |  | 
4 | C[B-](c1ccccc1)(c1ccccc1)c1ccccc1 [Compound 5, Sodium methyltriphenylborate] |  | 25 | -0.96 ± 0.1 | 
5 | CC[B-](c1ccccc1)(c1ccccc1)c1ccccc1 [Compound 6, Sodium ethyltriphenylborate] |  | 25 | 0 | 
6 | CCC[B-](c1ccccc1)(c1ccccc1)c1ccccc1 [Compound 7, Sodium n-propyltriphenylborate] |  | 5 | 0.8 ± 0.2 | 
7 | CCCCCC[B-](c1ccccc1)(c1ccccc1)c1ccccc1 [Compound 9, Sodium hexyltriphenylborate] |  | 1 | 2.83 ± 0.02 | 
8 | CCCCCCC[B-](c1ccccc1)(c1ccccc1)c1ccccc1 [Compound 10, Sodium heptyltriphenylborate] |  | 1 | 3.1 ± 0.05 | 
9 | CCCCCCCC[B-](c1ccccc1)(c1ccccc1)c1ccccc1 [Compound 11, Sodium octyltriphenylborate] |  | 1 | 4.1 ± 0.3 | 
10 | Cc1ccc([B-](c2ccccc2)(c2ccccc2)c2ccccc2)cc1.[Na+] [Compound 12, Sodium tolyltriphenylborate] | 25 µM |  |  | Log P [1]: 0.41±0.02
11 | Cc1ccc([B-](c2ccccc2)(c2ccc(C)cc2)c2ccc(C)cc2)cc1.[Na+] [Compound 14, Sodium tris(4-methylphenyl)(phenyl)borate] | 5 µM |  |  | Log P [1]: 2.5±0.2
12 | Cc1ccc([B-](c2ccc(C)cc2)(c2ccc(C)cc2)c2ccc(C)cc2)cc1.[Na+] [Compound 15, sodium tetrakis(tolyl)borate] | Active but MIC not determined because of abnormal background signal |  |  | 
13 | Fc1ccc([B-](c2ccc(F)cc2)(c2ccc(F)cc2)c2ccc(F)cc2)cc1 [Compound 16, sodium tetrakis(4-fluorophenyl)borate] |  | 2.5 |  | 
14 | Oc1ccc2ccccc2c1/C=N/c1ccc([B-](c2ccccc2)(c2ccccc2)c2ccccc2)cc1 [Compound 19, sodium {4-[(E)-[(2-hydroxynaphthalen-1-yl)methylidene]amino]phenyl}triphenylborate] |  | 2.35 |  | 
15 | c1ccc(P(c2ccccc2)c2nc3ccccc3n2Cc2ccc([B-](c3ccccc3)(c3ccccc3)c3ccccc3)cc2)cc1 [Compound 21] |  | 0.78 |  | 
16 | c1ccc([B-]2(c3ccccc3)[NH2+]CCO2)cc1 [Compound 22] |  | 75 (≈ 16.9 µg/mL) |  | 
17 | CC[C@H]1OC(=O)[C@H](C)[C@@H](O[C@H]2C[C@@](C)(OC)[C@@H](O)[C@H](C)O2)[C@H](C)[C@@H](O[C@@H]2O[C@H](C)C[C@H](N(C)C)[C@H]2O)[C@](C)(O)C[C@@H](C)C(=O)[C@H](C)[C@@H](O)[C@]1(C)O [erythromycin, reference compound] |  |  |  | emitted light after 16 h of growth ([3]; erythromycin 3.5 μM, largest value of 10 replicates): < 800 RLU
18 | Potassium difluorodiphenylborate [Compound 3] | 37.5 µM |  |  | 
19 | Sodium bis(4-methylphenyl)diphenylborate [Compound 13] | 5 µM |  |  | Log P [1]: 2.0±0.1
20 | Sodium tetrafluoroborate [Compound 4, reference compound] | >250 µM |  |  | 
